Experimental findings from patent US7683061B2, “Triazine dimers for the treatment of autoimmune diseases” (ProMetic BioSciences Inc., priority 2003, dated 2010) are described below.

Test [1] addresses TNFα / p55 TNFα receptor (CD120a) (Homo sapiens, UniProt P01375). Description: Binding ELISA: TNF-α binding to plastic coated TNF-R1. Conditions: for inhibition at 100 µM: 10^−4 M; for inhibition at 10 µM: 10^−5 M. The method, then:
(§1) Compounds were tested for their ability to bind to TNFα or inhibit the interaction of TNFα with its respective receptors; p55 and p75 TNFα receptor. Three binding ELISA assays were undertaken as described by Mancini et al. Biochemical Pharmacology 58, 851-859 (1999). TNFα or receptor (1 μg/mL) was coated on a 96-well plate Maxisorp, overnight at 4° C. After incubation, unbound TNFα or p55 TNFα receptor or p75 TNFα receptor was removed and the plate washed three times with PBS. The plate was then incubated with 100 μL/well of a 2% BSA solution for 1 h at 37° C. to block non specific protein binding. After incubation, the plate was washed three times with PBS. Biotinylated recombinant human TNFα p55 or p75 receptor or biotinylated recombinant human TNFα was added to the wells in the presence or absence of compounds. The plate was incubated for 1 h at 37° C. After incubation, the plate was washed three times with PBS to remove unbound labeled p55 or p75 receptor or recombinant human TNFα. 100 μL of avidin-HRP (diluted 1/2000 in PBS-0.1% BSA) was added to each well and incubated 1 h at 37° C. Bound p55 or p75 receptor or recombinant human TNFα was detected by the addition of 200 μL of 3,3′,5,5′-tetramethylbenzidine (TMB) per well for 15 min. The plate was then read at 655 nm on a EL 800 universal Microplate reader (Bio-Tek, Mississauga, Canada). Data was analyzed in Microsoft Excel and recorded as the percentage of inhibition of p55 or p75 binding to TNFα or TNFα binding to RI (p55) or RII (p75).

Test [2] concerns TNFα production, J774A-1 cells. The experiment in a line: LPS-induced TNFα production in J774A-1 cells (ELISA). Format: cell-based. To be noted: Mus musculus, J774.A1, 24 h, read-out: IC50 (μM), inhibition of TNFα released by LPS induction. Put shortly: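 J774-1 macrophages were cultured with or without LPS and compound at 37° C for 24 h. TNFα in supernatants measured by ELISA; IC50 is the concentration inhibiting 50% of TNFα production.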
Background: ELISA stands for enzyme-linked immunosorbent assay.

Test [3] has as its system mice, oxazolone-induced DTH. Description: Oxazolone-induced delayed-type hypersensitivity (DTH). To be noted: for inflammation as seen by ear thickness: administered orally at day 0, 1 and 2, FIG. 8. Format: in vivo. The method, then:
Compounds were tested for their ability to treat oxazolone-induced delayed-type hypersensitivity (DTH) in mice. On day 0, mice were sensitized with 100 μL of oxazolone in 5% acetone. On day 0, 1 and 2, mice were treated by intravenous or oral administrations of the vehicle (control) or methotrexate (MTX, positive control/IV) or hydrocortisone (positive control/PO) or the compound at 50 mg/kg to 300 mg/kg of body weight. Mice were challenged with an application of 50 μL of oxazolone on the surface of the right ear (first challenge, day 3; second challenge, day 10). Ear thickness was measured on day 4 to day 7, and on day 11 to 14. Redness and crust formation was also observed. Mice were sacrificed on day 14. TDTH (CD4) cells play an important role in regulating the intensity of the DTH response. Compounds may exert an inhibitory influence on the DTH response through its inhibition of T-cell activation and DNA, RNA and or protein synthesis.

In test [4] the test system is peripheral blood mononuclear leukocytes (PBML). The experiment in a line: PBML protein synthesis (leucine). Type of test: cell-based, human. Conditions: for IC50: Homo sapiens, Leukocyte; for effect on protein synthesis (in words): resting and stimulated PBML. From the text: (§2) PBML were obtained from the peripheral blood of healthy volunteers. Blood was submitted to gradient centrifugation with Lympholyte-poly (Cedarlane, Hornby, Canada). The layer, which contains the mononuclear leukocytes, was collected and the cells washed three times in PBS. Cells were then suspended in RPMI (Gibco, Burlington, Canada) supplemented with […] (cyclone, Logan USA). Viability was greater than 99% as determined by trypan blue exclusion.
(§3) PBML were resuspended at 2×10^6 cells mL. 100 μL of PBML (2×10^5 cells) were incubated in a 96-well microtiter plate for 48 h in the presence or absence of compound or protein A. Cells were quiescent or stimulated with concanavalin A (ConA; T-cells) or pokeweed mitogen (PWM; B-cells). After incubation, cells were treated with MTT (cytotoxicity) or pulsed with 1 μCi of [^3]-thymidine (DNA synthesis), [^3H]-uridine (RNA synthesis) or [^3]-leucine (protein synthesis) for 6 h. Plates were harvested on a Tomteck and counted on a Microbeta β-counter.

The test system is the same in test [5]. The experiment in a line: PBML DNA synthesis (thymidine). Type of test: cell-based, human. Conditions: for IC50: Homo sapiens, Leukocyte; for effect on DNA synthesis (in words): resting and stimulated (ConA and PWM) PBML.
Source text: as §2, §3

Test [6] has as its system female Lewis rats, adjuvant-induced arthritis. Description: Freund's adjuvant-induced arthritis (AIA). Type of test: in vivo. Conditions: for reduction of the inflammatory index: intravenous days −3, −2, −1, 12, 13, 14, 18, 19 and 20, from day 3 to day 5, FIG. 10. The text has this: AIA was induced in female Lewis rats by the injection of lyophilized Mycobacterium butyricum suspended in mineral oil into the footpad. The development of aridity was monitored over a 3 weeks period post-adjuvant injection, inflammation peaks at day 3 following the adjuvant administration. Immune activation appears around day 14. Compounds were orally or intravenously administered at different doses at day −3, −2 and −1 pre-adjuvant injection and at different regimen as specified in the exponent starting from day 10 through 21 post-adjuvant injection or animals were treated with oral admiration of compound 19a from day −3 to day 21. Body weight was recorded. The arthritis index, which is a measure of inflammation (oedema), redness and stiffness of the articulations, was used to monitor the development of the disease. The degree of arthritis was determined by measuring two perpendicular diameters of the ankles in the mediolateral and dorsoventral planes using a caliper. Joint circumference in millimeters is then calculated using a geometric formula. Both the incidence and severity of the arthritis was evaluated. Incidence is defined as the number of rats with clinical evidence of joint inflammation during the study period.

Test [7] has as its target TNFα / p75 TNFα receptor (CD120b) (Homo sapiens, UniProt P01375). The experiment in a line: Binding ELISA: TNF-α binding to plastic coated TNF-R2. To be noted: for inhibition at 100 µM: 10^−4 M; for inhibition at 10 µM: 10^−5 M. The method, then: as §1

TNFα / p75 TNFα receptor (CD120b), sequence (P01375 77-233 limits assumed): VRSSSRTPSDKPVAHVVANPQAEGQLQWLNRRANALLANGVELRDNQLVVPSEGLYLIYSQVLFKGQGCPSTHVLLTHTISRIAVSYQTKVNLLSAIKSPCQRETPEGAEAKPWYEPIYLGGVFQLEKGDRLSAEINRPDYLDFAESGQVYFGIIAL
TNFα / p55 TNFα receptor (CD120a), sequence (P01375 77-233 limits assumed): as above

Turning to `Nc1ccc(CCNc2nc(Nc3ccc(CCNc4nc(NCCO)nc(Nc5cccc(N)c5)n4)cc3)nc(Nc3cccc(N)c3)n2)cc1` [Compound 19a], the inhibition at 100 µM in test [1] stood at 13.3%; in test [7], 27.4%. The inhibition at 10 µM in test [1] is -4%; in test [7], 24.3%. Moreover, the 50% inhibitory concentration (IC50) in test [2] was determined as 20.7 µM; in test [4] (ConA stimulated PBML) it was 3.91 µM; in test [4] (PWM stimulated PBML) it was 4.88 µM; in test [4] (Resting PBML) it was 9.9 µM; in test [5] (ConA stimulated PBML), 1.57 µM; in test [5] (PWM stimulated PBML) it was 4.38 µM. In test [5] (Resting PBML), this compound yielded an IC50 of 1.9 µM. Further, the “potency compared to methotrexate” value in test [3] (FIGS. 6 and 7) was “equipotent to methotrexate”. Further, the “inflammation as seen by ear thickness” value in test [3] is listed as “significant reduction of the inflammation”. Moreover, the “effect on protein synthesis (in words)” value in test [4] is “inhibit”. The “effect on DNA synthesis (in words)” value in test [5] is given as “suppress”. Further, the “inhibition of chronic inflammation (days 12 to 21)” value in test [6] (IV, days 12 to 19) is “strong and significant inhibition of inflammation”; in test [6] (PO, day 16) it was “strong and significant inhibition of inflammation”. Moreover, the “reduction of the inflammatory index” value in test [6] turned out to be 20%. For the same compound, the inhibition of inflammation entry in test [6] (oral administration, acute inflammation, compared to the control and methotrexate) is listed as “significant inhibition of inflammation”; in test [6] (orally every day (days −3 to 21), from day 13 through day 22, FIG. 12) it was “up to 50%”.

Turning to `Oc1ccc(CCNc2nc(NCCNc3nc(NCCc4ccc(O)cc4)nc(Nc4ccccc4)n3)nc(Nc3ccccc3)n2)cc1` [Compound 1], the inhibition at 100 µM in test [1] stood at 46%; in test [7], 63.3%. In addition, the inhibition at 10 µM stood at 28.9% in test [1] and 38.4% in test [7]. In addition, the IC50 was found to be 9.2 µM in test [2]; 2.44 µM in test [4] (ConA stimulated PBML); 2.96 µM in test [4] (PWM stimulated PBML); 6.48 µM in test [4] (Resting PBML); 1.42 µM in test [5] (ConA stimulated PBML); 0.77 µM in test [5] (PWM stimulated PBML). Besides, the IC50 in test [5] (Resting PBML) is 2.49 µM. Also, the “inflammation as seen by ear thickness” value in test [3] is given as “significant reduction of the inflammation”. For the same compound, the “effect on protein synthesis (in words)” value in test [4] is listed as “inhibit”. The “effect on DNA synthesis (in words)” value in test [5] is listed as “suppress”. For the same compound, in test [6], the “reduction of the inflammatory index” value is given as 20%.

For orientation: inhibition means the drop in the measured response relative to a control, in per cent. Broadly, the IC50 is the concentration that inhibits the measured activity by half.
